This passage reports IC50 results from patent US11814367B2, “Inhibitors of glycogen synthase 1 (GYS1) and methods of use thereof” (Maze Therapeutics, Inc., priority 2021, dated 2023).

Usually pIC50 stands for the negative decadic logarithm of the IC50, by convention in mol/L.

Each structure is given as a SMILES string. pIC50: −log10 of the molar value.

Sequence of hGYS1 enzyme (recombinant hGYS1/GN1 protein) (P13807 whole entry): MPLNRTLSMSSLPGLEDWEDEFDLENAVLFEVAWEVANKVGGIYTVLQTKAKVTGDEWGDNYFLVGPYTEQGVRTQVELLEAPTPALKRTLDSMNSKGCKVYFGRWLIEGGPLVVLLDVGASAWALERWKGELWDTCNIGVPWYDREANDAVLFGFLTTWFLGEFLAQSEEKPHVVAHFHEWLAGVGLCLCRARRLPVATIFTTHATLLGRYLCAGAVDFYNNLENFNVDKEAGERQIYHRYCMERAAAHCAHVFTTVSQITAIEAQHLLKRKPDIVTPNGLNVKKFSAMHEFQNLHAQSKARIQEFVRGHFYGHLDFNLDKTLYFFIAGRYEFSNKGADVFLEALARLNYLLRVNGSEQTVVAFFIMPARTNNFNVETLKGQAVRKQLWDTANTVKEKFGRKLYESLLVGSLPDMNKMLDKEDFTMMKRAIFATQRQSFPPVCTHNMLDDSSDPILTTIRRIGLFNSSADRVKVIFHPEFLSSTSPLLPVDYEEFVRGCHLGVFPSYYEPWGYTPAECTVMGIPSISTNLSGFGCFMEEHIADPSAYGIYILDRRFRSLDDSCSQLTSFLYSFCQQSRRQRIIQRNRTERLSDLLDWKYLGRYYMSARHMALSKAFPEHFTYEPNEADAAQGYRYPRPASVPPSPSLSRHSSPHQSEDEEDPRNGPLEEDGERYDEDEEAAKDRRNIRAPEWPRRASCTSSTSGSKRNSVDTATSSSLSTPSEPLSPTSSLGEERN
Sequence of hGYS1 enzyme (recombinant hGYS1/GN1 protein) (P46976 whole entry partner): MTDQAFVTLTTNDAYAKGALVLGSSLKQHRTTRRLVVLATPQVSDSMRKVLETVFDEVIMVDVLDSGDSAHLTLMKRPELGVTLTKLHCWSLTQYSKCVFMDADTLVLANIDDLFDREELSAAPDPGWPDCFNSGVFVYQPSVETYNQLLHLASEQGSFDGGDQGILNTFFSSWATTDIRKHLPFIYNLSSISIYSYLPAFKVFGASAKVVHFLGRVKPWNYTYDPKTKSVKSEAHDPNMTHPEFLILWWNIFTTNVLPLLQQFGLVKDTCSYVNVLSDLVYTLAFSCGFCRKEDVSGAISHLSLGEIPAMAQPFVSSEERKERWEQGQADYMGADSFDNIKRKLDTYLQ

The assay addresses hGYS1 enzyme (recombinant hGYS1/GN1 protein) (Homo sapiens (Human), UniProt P13807). Nature of the assay: GYS1 coupled enzyme assay (PK/LDH). The class given is biochemical. To be noted: hGYS1/GN1 50 nM, UDP-Glucose 0.8 mM, G6P 1 mM; geometric mean of at least 2 runs.
For the compound `CC(=O)N1C[C@@H]2[C@@H](C(=O)N3C[C@H](F)C[C@H]3C(=O)N[C@@H](c3ccccc3)c3ccc(C(C)C)cc3)CO[C@@H]2C1` [Compound 165, (2S,4R)-1-[(3R,3aS,6aS)-5-acetyl-hexahydro-2H-furo[2,3-c]pyrrole-3-carbonyl]-4-fluoro-N-[(S)-phenyl[4-(propan-2-yl)phenyl]methyl]pyrrolidine-2-carboxamide], the pIC50 is 6.44.
The same measure for `CC(=O)N1CCCC(C)(C(=O)N2C[C@H](F)C[C@H]2C(=O)N[C@@H](c2ccccc2)c2ccc(C(C)C)cc2)C1` (stereo partly drawn) [Compound 168, (2S,4R)-1-(1-acetyl-3-methylpiperidine-3-carbonyl)-4-fluoro-N-[(S)-phenyl[4-(propan-2-yl)phenyl]methyl]pyrrolidine-2-carboxamide]: 6.36; for `CC(=O)N1CC[C@@H](C)[C@H](C(=O)N2C[C@H](F)C[C@H]2C(=O)N[C@@H](c2ccccc2)c2ccc(C(C)C)cc2)C1` [Compound 170, (2S,4R)-1-[(3S,4R)-1-acetyl-4-methylpiperidine-3-carbonyl]-4-fluoro-N-[(S)-phenyl[4-(propan-2-yl)phenyl]methyl]pyrrolidine-2-carboxamide]: 6.51; for `CC(=O)N1C[C@H]2CC[C@@H](C1)[C@@H]2C(=O)N1C[C@H](F)C[C@H]1C(=O)N[C@@H](c1ccccc1)c1ccc(C(C)C)cc1` [Compound 173, (2S,4R)-1-[(1R,5S,8S)-3-acetyl-3-azabicyclo[3.2.1]octane-8-carbonyl]-4-fluoro-N-[(S)-phenyl[4-(propan-2-yl)phenyl]methyl]pyrrolidine-2-carboxamide]: 6.07.
With `CC(=O)N1C2CCC1CC(C(=O)N1C[C@H](F)C[C@H]1C(=O)N[C@@H](c1ccccc1)c1ccc(C(C)C)cc1)C2` (stereo partly drawn) [Compound 175, (2S,4R)-1-{8-acetyl-8-azabicyclo[3.2.1]octane-3-carbonyl}-4-fluoro-N-[(S)-phenyl[4-(propan-2-yl)phenyl]methyl]pyrrolidine-2-carboxamide], the pIC50 is 6.24.
Next, `CC(=O)N1C[C@@H]2CC[C@H]1C(C(=O)N1C[C@H](F)C[C@H]1C(=O)N[C@@H](c1ccccc1)c1ccc(C(C)C)cc1)C2` (stereo partly drawn) [Compound 176, (2S,4R)-1-[(1S,4R)-2-acetyl-2-azabicyclo[2.2.2]octane-6-carbonyl]-4-fluoro-N-[(S)-phenyl[4-(propan-2-yl)phenyl]methyl]pyrrolidine-2-carboxamide]: 6.39.
The same measure for `CC(=O)N1CCCC(C)(C(=O)N2C[C@H](F)C[C@H]2C(=O)N[C@@H](c2ccccc2)c2ccc(C(C)C)cc2)CC1` (stereo partly drawn) [Compound 181, (2S,4R)-1-(1-acetyl-4-methylazepane-4-carbonyl)-4-fluoro-N-[(S)-phenyl[4-(propan-2-yl)phenyl]methyl]pyrrolidine-2-carboxamide]: 6.35.
The same measure for `CC(=O)N1CCC2(CCCC2C(=O)N2C[C@H](F)C[C@H]2C(=O)N[C@@H](c2ccccc2)c2ccc(C(C)C)cc2)C1` (stereo partly drawn) [Compound 182, (2S,4R)-1-{2-acetyl-2-azaspiro[4.4]nonane-6-carbonyl}-4-fluoro-N-[(S)-phenyl[4-(propan-2-yl)phenyl]methyl]pyrrolidine-2-carboxamide]: 6.13; for `CC(C)c1ccc([C@@H](NC(=O)[C@@H]2C[C@@H](F)CN2C(=O)C(O)CO)c2ccccc2)cc1` (stereo partly drawn) [Compound 186, (2S,4R)-1-(2,3-dihydroxypropanoyl)-4-fluoro-N-[(S)-phenyl[4-(propan-2-yl)phenyl]methyl]pyrrolidine-2-carboxamide]: 7.01; for `CC(=O)N1[C@H](C(=O)N[C@@H](c2ccccc2)c2ccc(C(C)C)cc2)C[C@@H]2C[C@@H]21` [Compound 199, (1S,3S,5S)-2-acetyl-N-[(S)-phenyl[4-(propan-2-yl)phenyl]methyl]-2-azabicyclo[3.1.0]hexane-3-carboxamide]: 5.92.
In the case of `CC(=O)N1[C@@H]2C[C@@H]2C[C@H]1C(=O)N[C@@H](c1ccccc1)c1ccc(C(C)C)cc1` [Compound 200, (1R,3S,5R)-2-acetyl-N-[(S)-phenyl[4-(propan-2-yl)phenyl]methyl]-2-azabicyclo[3.1.0]hexane-3-carboxamide], the pIC50 was 5.35.
Next, `CC(C)c1ccc([C@@H](NC(=O)[C@@H]2CCCN2C(=O)CO)c2ccccc2)cc1` [Compound 211, (2S)-1-(2-hydroxyacetyl)-N-[(S)-phenyl[4-(propan-2-yl)phenyl]methyl]pyrrolidine-2-carboxamide]: 6.33.
The same measure for `CC(=O)NCC(=O)N1CCC[C@H]1C(=O)N[C@@H](c1ccccc1)c1ccc(C(C)C)cc1` [Compound 212, (2S)-1-(2-acetamidoacetyl)-N-[(S)-phenyl[4-(propan-2-yl)phenyl]methyl]pyrrolidine-2-carboxamide]: 7.02; for `CC(=O)N1[C@H](C)CC[C@H]1C(=O)N[C@@H](c1ccccc1)c1ccc(C(C)C)cc1` [Compound 215, (2S,5R)-1-acetyl-5-methyl-N-[(S)-phenyl[4-(propan-2-yl)phenyl]methyl]pyrrolidine-2-carboxamide]: 5.42.
The same measure for `CC(C)c1ccc([C@@H](NC(=O)[C@@H]2C[C@@H](F)CN2C(=O)Cc2cnoc2)c2ccccc2)cc1` [Compound 230, (2S,4R)-4-fluoro-1-[2-(1,2-oxazol-4-yl)acetyl]-N-[(S)-phenyl[4-(propan-2-yl)phenyl]methyl]pyrrolidine-2-carboxamide]: 6.93.
In the case of `CC(C)c1ccc([C@@H](NC(=O)[C@@H]2C[C@@H](F)CN2C(=O)CN2CCNCC2)c2ccccc2)cc1` [Compound 234, (2S,4R)-4-fluoro-N-[(S)-phenyl[4-(propan-2-yl)phenyl]methyl]-1-[2-(piperazin-1-yl)acetyl]pyrrolidine-2-carboxamide], the pIC50 is 6.16.
The same measure for `CC(=O)N1CCN(CC(=O)N2C[C@H](F)C[C@H]2C(=O)N[C@@H](c2ccccc2)c2ccc(C(C)C)cc2)CC1` [Compound 235, (2S,4R)-1-[2-(4-acetylpiperazin-1-yl)acetyl]-4-fluoro-N-[(S)-phenyl[4-(propan-2-yl)phenyl]methyl]pyrrolidine-2-carboxamide]: 6.47; for `CC(C)c1ccc([C@@H](NC(=O)[C@@H]2C[C@@H](F)CN2C(=O)C(C)(C)O)c2ccccc2)cc1F` [Compound 327, (2S,4R)-4-fluoro-N-[(S)-[3-fluoro-4-(propan-2-yl)phenyl](phenyl)methyl]-1-(2-hydroxy-2-methylpropanoyl)pyrrolidine-2-carboxamide]: 6.92; for `CC(C)c1ccc([C@H](NC(=O)[C@@H]2C[C@@H](F)CN2C(=O)Cc2nnn[nH]2)c2ccccc2)cc1F` [Compound 329, (2S,4R)-4-fluoro-N-[(R)-[3-fluoro-4-(propan-2-yl)phenyl](phenyl)methyl]-1-[2-(1H-1,2,3,4-tetrazol-5-yl)acetyl]pyrrolidine-2-carboxamide]: 6.47.
Take `CC(C)c1ccc([C@@H](NC(=O)[C@@H]2CCC3(CC3)N2C(=O)Cc2cnn[nH]2)c2ccccc2)cc1F` [Compound 341, (5S)-N-[(S)-[3-fluoro-4-(propan-2-yl)phenyl](phenyl)methyl]-4-[2-(1H-1,2,3-triazol-5-yl)acetyl]-4-azaspiro[2.4]heptane-5-carboxamide]: the pIC50 was 6.11.
In the case of `CC(C)c1ccc([C@@H](NC(=O)[C@@H]2C[C@@H](F)CN2C(=O)Cc2[nH]nnc2N2CCN(C(=O)OC(C)(C)C)CC2)c2ccccc2)cc1F` [Compound 370, tert-butyl 4-(5-{2-[(2S,4R)-4-fluoro-2-{[(S)-[3-fluoro-4-(propan-2-yl)phenyl](phenyl)methyl]carbamoyl}pyrrolidin-1-yl]-2-oxoethyl}-1H-1,2,3-triazol-4-yl)piperazine-1-carboxylate], the pIC50 is 6.24.
Next, `CC(=O)N1[C@@H](C)CC[C@H]1C(=O)N[C@@H](c1ccccc1)c1ccc(C2CC2)c(F)c1` [Compound 419, (2S,5S)-1-acetyl-N-[(S)-(4-cyclopropyl-3-fluorophenyl)(phenyl)methyl]-5-methylpyrrolidine-2-carboxamide]: 5.66; `CC(=O)N1[C@H](C(=O)N[C@@H](c2ccccc2)c2ccc(C3CC3)c(F)c2)C[C@@H]2C[C@@H]21` [Compound 420, (1S,3S,5S)-2-acetyl-N-[(S)-(4-cyclopropyl-3-fluorophenyl)(phenyl)methyl]-2-azabicyclo[3.1.0] hexane-3-carboxamide]: 5.45; `O=C(N[C@@H](c1ccccc1)c1ccc(C2CC2)c(F)c1)[C@@H]1C[C@@H](F)CN1C(=O)Cc1nnc(C2CC2)o1` [Compound 429, (2S,4R)-1-[2-(5-cyclopropyl-1,3,4-oxadiazol-2-yl)acetyl]-N-[(S)-(4-cyclopropyl-3-fluorophenyl)(phenyl)methyl]-4-fluoropyrrolidine-2-carboxamide]: 6.94.
Next, `O=C(N[C@@H](c1ccccc1)c1ccc(C2CC2)c(F)c1)[C@@H]1C[C@@H](F)CN1C(=O)Cc1ccon1` [Compound 438, (2S,4R)-N-[(S)-(4-cyclopropyl-3-fluorophenyl)(phenyl)methyl]-4-fluoro-1-[2-(1,2-oxazol-3-yl)acetyl]pyrrolidine-2-carboxamide]: 6.52; `O=C(N[C@@H](c1ccccc1)c1ccc(C2CC2)c(F)c1)[C@@H]1[C@H]2C[C@H]2CN1C(=O)Cc1cnn[nH]1` [Compound 440, (1S,2S,5R)-N-[(S)-(4-cyclopropyl-3-fluorophenyl)(phenyl)methyl]-3-[2-(1H-1,2,3-triazol-5-yl)acetyl]-3-azabicyclo[3.1.0] hexane-2-carboxamide]: 6.35.
Turning to `NCc1nnc(CC(=O)N2C[C@H](F)C[C@H]2C(=O)N[C@@H](c2ccccc2)c2ccc(C3CC3)c(F)c2)o1` [Compound 489, (2S,4R)-1-{2-[5-(aminomethyl)-1,3,4-oxadiazol-2-yl]acetyl}-N-[(S)-(4-cyclopropyl-3-fluorophenyl)(phenyl)methyl]-4-fluoropyrrolidine-2-carboxamide], the pIC50 was 6.45.
Next, `CC(=O)N1C[C@H](F)C[C@H]1C(=O)N[C@@H](c1ccc(C(C)C)cc1)c1ccn[nH]1` [Compound 614, (2S,4R)-1-acetyl-4-fluoro-N-[(S)-[4-(propan-2-yl)phenyl](1H-pyrazol-5-yl)methyl]pyrrolidine-2-carboxamide]: 5.94.
